Measurements: BindingDB's records for doi:10.1021/jm100886h (University of Copenhagen, 2010)

Experiment: Antagonist activity at GluR1 expressed in Xenopus laevis oocytes assessed as inhibition of glutamate-induced current at -60mV holding potential by two-electrode voltage-clamp electrophysiology

SMILES | IC50 [nM]
CCCC(=O)N[C@@H](CC1CCCCC1)C(=O)NCCCNCCCCNCCCN [(S)-N-(1-(3-(4-(3-aminopropylamino)butylamino)propylamino)-3-cyclohexyl-1-oxopropan-2-yl)butyramide] | 32
NCCCNCCCCNCCCNC(=O)[C@H](CC1CCCCC1)NC(=O)Cc1cccc2ccccc12 [(S)-N-(3-(4-(3-aminopropylamino)butylamino)propyl)-3-cyclohexyl-2-(2-(naphthalen-1-yl)acetamido)propanamide] | 41
NCCCNCCCCNCCCNC(=O)[C@H](CC1CCCCC1)NC(=O)CC12CC3CC(CC(C3)C1)C2 [(S)-2-(2-Adamantan-1-yl-acetylamino)-N-{3-[4-(3-amino-propylamino)-butylamino]-propyl}-3-cyclohexyl-propionamide] | 105
NCCCNCCCCNCCCNC(=O)[C@H](CC1CCCCC1)NC(=O)c1ccc(-c2ccccc2)cc1 [(S)-N-(1-(3-(4-(3-aminopropylamino)butylamino)propylamino)-3-cyclohexyl-1-oxopropan-2-yl)biphenyl-4-carboxamide] | 87
NCCCNCCCCNCCCNC(=O)[C@H](CC1CCCCC1)NC(=O)C1CCCCC1 [(S)-N-(1-(3-(4-(3-aminopropylamino)butylamino)propylamino)-3-cyclohexyl-1-oxopropan-2-yl)cyclohexanecarboxamide] | 21
